# Measurements: patent US20120016009A1, “Optimized Methods For Delivery Of DSRNA Targeting The PCSK9 Gene” (priority 2008, published 2012)
# In the oligonucleotide strings, read from the 5' end, every base follows the letter of its sugar. An asterisk marks phosphorothioate; unmarked linkages are phosphodiester. Other units and linkages are bracketed, terminal groups are in braces. A string of capitals states the bases alone. d = 2'-deoxy (DNA); m = 2'-O-methyl; r = 2'-OH (RNA)
# Tested on: PCSK9 mRNA
# Test: PCSK9 siRNA screening in HepG2 cells (lipofectamine 2000 transfection, PCSK9 mRNA by Quantigene, normalized to GAP-DH)
# Assay type: cell-based, human
# Settings: not given
# Method in brief: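 PCSK9 silencing was assessed in HepG2 cells by lipofectamine 2000 siRNA transfection in 96-well plates. Twenty-four hours later, lysates were analyzed with the Quantigene Explore Kit, with PCSK9 signal normalized to GAP-DH. Eight datapoints were collected per siRNA, and remaining transcript was expressed as a percentage of cells treated with an unrelated control siRNA duplex.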
row,Substance,IC50 [nM]
1,AD-9610: PCSK9 siRNA (sense rArGrGrUrGrUrArUrCrUrCrCrUrArGrArCrArCdT*dT; antisense rGrUrGrUrCrUrArGrGrArGrArUrArCrArCrCrUdT*dT),0.04
2,AD-9636: PCSK9 siRNA (sense rCrArUrArCrArGrArGrUrGrArCrCrArCrCrGrGdT*dT; antisense rCrCrGrGrUrGrGrUrCrArCrUrCrUrGrUrArUrGdT*dT),2.1

# Same assay, conditions: 3 nM siRNA
row,Substance,Mean percent remaining mRNA transcript at siRNA concentration/in cell type 3 nM/HepG2 [%]
1,AD-9610: PCSK9 siRNA (sense rArGrGrUrGrUrArUrCrUrCrCrUrArGrArCrArCdT*dT; antisense rGrUrGrUrCrUrArGrGrArGrArUrArCrArCrCrUdT*dT),34
2,AD-9626: PCSK9 siRNA (sense rUrGrArArGrArUrArUrUrUrArUrUrCrUrGrGrGdT*dT; antisense rCrCrCrArGrArArUrArArArUrArUrCrUrUrCrAdT*dT),68
3,AD-9629: PCSK9 siRNA (sense rUrCrUrGrGrGrUrUrUrUrGrUrArGrCrArUrUrUdT*dT; antisense rArArArUrGrCrUrArCrArArArArCrCrCrArGrAdT*dT),24
4,AD-9634: PCSK9 siRNA (sense rCrUrCrUrGrUrUrGrCrCrUrUrUrUrUrArCrArGdT*dT; antisense rCrUrGrUrArArArArArGrGrCrArArCrArGrArGdT*dT),30
5,AD-9636: PCSK9 siRNA (sense rCrArUrArCrArGrArGrUrGrArCrCrArCrCrGrGdT*dT; antisense rCrCrGrGrUrGrGrUrCrArCrUrCrUrGrUrArUrGdT*dT),41
6,AD-9639: PCSK9 siRNA (sense rGrUrGrCrUrGrArGrGrCrCrArCrGrArGrGrUrCdT*dT; antisense rGrArCrCrUrCrGrUrGrGrCrCrUrCrArGrCrArCdT*dT),35

# Same assay, conditions: 30 nM siRNA
row,Substance,Mean percent remaining mRNA transcript at siRNA concentration/in cell type 30 nM/HepG2 [%]
1,AD-9609: PCSK9 siRNA (sense rCrArCrGrGrUrArCrCrGrGrGrCrGrGrArUrGrAdT*dT; antisense rUrCrArUrCrCrGrCrCrCrGrGrUrArCrCrGrUrGdT*dT),71
2,AD-9610: PCSK9 siRNA (sense rArGrGrUrGrUrArUrCrUrCrCrUrArGrArCrArCdT*dT; antisense rGrUrGrUrCrUrArGrGrArGrArUrArCrArCrCrUdT*dT),36
3,AD-9611: PCSK9 siRNA (sense rUrCrCrUrArGrArCrArCrCrArGrCrArUrArCrAdT*dT; antisense rUrGrUrArUrGrCrUrGrGrUrGrUrCrUrArGrGrAdT*dT),48
4,AD-9612: PCSK9 siRNA (sense rArCrCrArCrCrGrGrGrArArArUrCrGrArGrGrGdT*dT; antisense rCrCrCrUrCrGrArUrUrUrCrCrCrGrGrUrGrGrUdT*dT),122
5,AD-9614: PCSK9 siRNA (sense rGrGrCrArArCrUrUrCrCrGrGrGrArCrGrArUrGdT*dT; antisense rCrArUrCrGrUrCrCrCrGrGrArArGrUrUrGrCrCdT*dT),100
6,AD-9615: PCSK9 siRNA (sense rUrUrCrCrGrGrGrArCrGrArUrGrCrCrUrGrCrCdT*dT; antisense rGrGrCrArGrGrCrArUrCrGrUrCrCrCrGrGrArAdT*dT),116
7,AD-9616: PCSK9 siRNA (sense rArGrCrArCrCrUrGrCrUrUrUrGrUrGrUrCrArCdT*dT; antisense rGrUrGrArCrArCrArArArGrCrArGrGrUrGrCrUdT*dT),84
8,AD-9617: PCSK9 siRNA (sense rArUrGrCrUrGrUrCrUrGrCrCrGrArGrCrCrGrGdT*dT; antisense rCrCrGrGrCrUrCrGrGrCrArGrArCrArGrCrArUdT*dT),111
9,AD-9618: PCSK9 siRNA (sense rGrArGrCrArUrGrGrArArUrCrCrCrGrGrCrCrCdT*dT; antisense rGrGrGrCrCrGrGrGrArUrUrCrCrArUrGrCrUrCdT*dT),90
10,AD-9619: PCSK9 siRNA (sense rUrCrArGrGrArGrCrCrGrGrGrArCrGrUrCrArGdT*dT; antisense rCrUrGrArCrGrUrCrCrCrGrGrCrUrCrCrUrGrAdT*dT),61
11,AD-9620: PCSK9 siRNA (sense rCrArGrGrArGrCrCrGrGrGrArCrGrUrCrArGrCdT*dT; antisense rGrCrUrGrArCrGrUrCrCrCrGrGrCrUrCrCrUrGdT*dT),77
12,AD-9621: PCSK9 siRNA (sense rUrCrUrGrGrArUrGrGrCrArUrCrUrArGrCrCrAdT*dT; antisense rUrGrGrCrUrArGrArUrGrCrCrArUrCrCrArGrAdT*dT),77
13,AD-9622: PCSK9 siRNA (sense rCrUrGrUrCrCrCrUrCrCrUrUrGrArGrCrArCrCdT*dT; antisense rGrGrUrGrCrUrCrArArGrGrArGrGrGrArCrArGdT*dT),94
14,AD-9623: PCSK9 siRNA (sense rGrUrCrArGrCrUrCrCrArGrGrCrGrGrUrCrCrUdT*dT; antisense rArGrGrArCrCrGrCrCrUrGrGrArGrCrUrGrArCdT*dT),66
15,AD-9624: PCSK9 siRNA (sense rCrGrUrCrArGrCrUrCrCrArGrGrCrGrGrUrCrCdT*dT; antisense rGrGrArCrCrGrCrCrUrGrGrArGrCrUrGrArCrGdT*dT),94
16,AD-9625: PCSK9 siRNA (sense rCrUrGrGrUrGrGrArGrGrUrGrUrArUrCrUrCrCdT*dT; antisense rGrGrArGrArUrArCrArCrCrUrCrCrArCrCrArGdT*dT),88
17,AD-9626: PCSK9 siRNA (sense rUrGrArArGrArUrArUrUrUrArUrUrCrUrGrGrGdT*dT; antisense rCrCrCrArGrArArUrArArArUrArUrCrUrUrCrAdT*dT),97
18,AD-9627: PCSK9 siRNA (sense rArGrArGrArCrUrGrArUrCrCrArCrUrUrCrUrCdT*dT; antisense rGrArGrArArGrUrGrGrArUrCrArGrUrCrUrCrUdT*dT),69

row,Substance,Mean percent remaining mRNA transcript at siRNA concentration/in cell type 30 nM/HepG2 [%]
1,AD-9628: PCSK9 siRNA (sense rUrUrCrUrCrUrGrCrCrArArArGrArUrGrUrCrAdT*dT; antisense rUrGrArCrArUrCrUrUrUrGrGrCrArGrArGrArAdT*dT),141
2,AD-9629: PCSK9 siRNA (sense rUrCrUrGrGrGrUrUrUrUrGrUrArGrCrArUrUrUdT*dT; antisense rArArArUrGrCrUrArCrArArArArCrCrCrArGrAdT*dT),23
3,AD-9630: PCSK9 siRNA (sense rGrGrGrCrArGrGrGrUrCrArUrGrGrUrCrArCrCdT*dT; antisense rGrGrUrGrArCrCrArUrGrArCrCrCrUrGrCrCrCdT*dT),82
4,AD-9631: PCSK9 siRNA (sense rCrUrCrUrGrCrCrArArArGrArUrGrUrCrArUrCdT*dT; antisense rGrArUrGrArCrArUrCrUrUrUrGrGrCrArGrArGdT*dT),80
5,AD-9632: PCSK9 siRNA (sense rCrArArCrUrUrUrGrGrCrCrGrCrUrGrUrGrUrGdT*dT; antisense rCrArCrArCrArGrCrGrGrCrCrArArArGrUrUrGdT*dT),34
6,AD-9633: PCSK9 siRNA (sense rUrGrGrUrCrArCrCrGrCrUrGrCrCrGrGrCrArAdT*dT; antisense rUrUrGrCrCrGrGrCrArGrCrGrGrUrGrArCrCrAdT*dT),75
7,AD-9634: PCSK9 siRNA (sense rCrUrCrUrGrUrUrGrCrCrUrUrUrUrUrArCrArGdT*dT; antisense rCrUrGrUrArArArArArGrGrCrArArCrArGrArGdT*dT),29
8,AD-9635: PCSK9 siRNA (sense rGrUrCrUrGrCrCrGrArGrCrCrGrGrArGrCrUrCdT*dT; antisense rGrArGrCrUrCrCrGrGrCrUrCrGrGrCrArGrArCdT*dT),90
9,AD-9636: PCSK9 siRNA (sense rCrArUrArCrArGrArGrUrGrArCrCrArCrCrGrGdT*dT; antisense rCrCrGrGrUrGrGrUrCrArCrUrCrUrGrUrArUrGdT*dT),42
10,AD-9637: PCSK9 siRNA (sense rGrArGrGrGrCrArGrGrGrUrCrArUrGrGrUrCrAdT*dT; antisense rUrGrArCrCrArUrGrArCrCrCrUrGrCrCrCrUrCdT*dT),83
11,AD-9638: PCSK9 siRNA (sense rCrUrGrGrArGrUrUrUrArUrUrCrGrGrArArArAdT*dT; antisense rUrUrUrUrCrCrGrArArUrArArArCrUrCrCrArGdT*dT),101
12,AD-9639: PCSK9 siRNA (sense rGrUrGrCrUrGrArGrGrCrCrArCrGrArGrGrUrCdT*dT; antisense rGrArCrCrUrCrGrUrGrGrCrCrUrCrArGrCrArCdT*dT),30
13,AD-9640: PCSK9 siRNA (sense rGmUrAmCmCrGrGrGmCrGrGrAmUrGrArAmUrAmCdT*dT; antisense rGmUrArUrUmCrArUrCrCrGrCrCrCrGrGmUrArCdT*dT),89
14,AD-9641: PCSK9 siRNA (sense rGrGmUrAmCmCrGrGrGmCrGrGrAmUrGrArAmUrAdT*dT; antisense mUrArUrUmCrArUrCrCrGrCrCrCrGrGmUrArCrCdT*dT),92
15,AD-9642: PCSK9 siRNA (sense mUrGmUrAmUmCmUmCmCmUrArGrAmCrAmCmCrArGdT*dT; antisense rCrUrGrGrUrGrUrCmUrArGrGrArGrAmUrAmCrAdT*dT),105
16,"AD-9643: PCSK9 siRNA (sense GGAGGuGuAucuccuAGAcTsT; antisense GUCuAGGAGAuAcACCUCCTsT; as printed in the source, key not given here)",40
17,AD-9645: PCSK9 siRNA (sense mCmCmCrArGmCmCrArGrGrAmUmUmCmCrGmCrGmCdT*dT; antisense rGrCrGrCrGrGrArArUrCrCrUrGrGrCrUrGrGrGdT*dT),66

# Same assay, conditions: 100 nM siRNA
row,Substance,Mean percent remaining mRNA transcript at siRNA concentration/in cell type 100 nM/HepG2 [%]
1,AD-9609: PCSK9 siRNA (sense rCrArCrGrGrUrArCrCrGrGrGrCrGrGrArUrGrAdT*dT; antisense rUrCrArUrCrCrGrCrCrCrGrGrUrArCrCrGrUrGdT*dT),66
2,AD-9616: PCSK9 siRNA (sense rArGrCrArCrCrUrGrCrUrUrUrGrUrGrUrCrArCdT*dT; antisense rGrUrGrArCrArCrArArArGrCrArGrGrUrGrCrUdT*dT),74
3,AD-9619: PCSK9 siRNA (sense rUrCrArGrGrArGrCrCrGrGrGrArCrGrUrCrArGdT*dT; antisense rCrUrGrArCrGrUrCrCrCrGrGrCrUrCrCrUrGrAdT*dT),42
4,AD-9620: PCSK9 siRNA (sense rCrArGrGrArGrCrCrGrGrGrArCrGrUrCrArGrCdT*dT; antisense rGrCrUrGrArCrGrUrCrCrCrGrGrCrUrCrCrUrGdT*dT),44
5,AD-9623: PCSK9 siRNA (sense rGrUrCrArGrCrUrCrCrArGrGrCrGrGrUrCrCrUdT*dT; antisense rArGrGrArCrCrGrCrCrUrGrGrArGrCrUrGrArCdT*dT),43
6,AD-9625: PCSK9 siRNA (sense rCrUrGrGrUrGrGrArGrGrUrGrUrArUrCrUrCrCdT*dT; antisense rGrGrArGrArUrArCrArCrCrUrCrCrArCrCrArGdT*dT),58
7,AD-9633: PCSK9 siRNA (sense rUrGrGrUrCrArCrCrGrCrUrGrCrCrGrGrCrArAdT*dT; antisense rUrUrGrCrCrGrGrCrArGrCrGrGrUrGrArCrCrAdT*dT),56
8,AD-9635: PCSK9 siRNA (sense rGrUrCrUrGrCrCrGrArGrCrCrGrGrArGrCrUrCdT*dT; antisense rGrArGrCrUrCrCrGrGrCrUrCrGrGrCrArGrArCdT*dT),73
9,AD-9637: PCSK9 siRNA (sense rGrArGrGrGrCrArGrGrGrUrCrArUrGrGrUrCrAdT*dT; antisense rUrGrArCrCrArUrGrArCrCrCrUrGrCrCrCrUrCdT*dT),56
